Laboratory results published in paper PMC5500991, “Substituted arylsulphonamides as inhibitors of perforin-mediated lysis” (European Journal of Medicinal Chemistry, 2017).
Structures can show the parent of a compound that is named as a salt.

Structure (SMILES) | melting point [°C]
CN1Cc2cc(-c3ccc(-c4cncc(NS(=O)(=O)c5ccc(Cl)cc5Cl)c4)s3)ccc2C1=O [Compound 31, 2,4-Dichloro-N-(5-(5-(2-methyl-1-oxoisoindolin-5-yl)thiophen-2-yl)pyridin-3-yl)benzenesulfonamide] | 282 to 285
CN1Cc2cc(-c3ccc(-c4cncc(NS(=O)(=O)c5ccc(Cl)cc5)c4)s3)ccc2C1=O [Compound 29, 4-Chloro-N-(5-(5-(2-methyl-1-oxoisoindolin-5-yl)thiophen-2-yl)pyridin-3-yl)benzenesulfonamide] | 281 to 284
CN1Cc2cc(-c3ccc(-c4cncc(NS(=O)(=O)c5cccc(F)c5)c4)s3)ccc2C1=O [Compound 23, 3-Fluoro-N-(5-(5-(2-methyl-1-oxoisoindolin-5-yl)thiophen-2-yl)pyridin-3-yl)benzenesulfonamide] | 292 to 294
CN1Cc2cc(-c3ccc(-c4cncc(NS(=O)(=O)c5cccc(Br)c5)c4)s3)ccc2C1=O [Compound 33, 3-Bromo-N-(5-(5-(2-methyl-1-oxoisoindolin-5-yl)thiophen-2-yl)pyridin-3-yl)benzenesulfonamide] | 303 to 307
COc1ccc(-c2ccc(-c3ccc4c(c3)CN(C)C4=O)s2)cc1S(=O)(=O)Nc1ccccn1 (as salt: sodium) [Compound 19, Sodium ((2-methoxy-5-(5-(2-methyl-1-oxoisoindolin-5-yl)thiophen-2-yl)phenyl)sulfonyl)(pyridin-2-yl)amide] | 322 to 325
CN1Cc2cc(-c3ccc(-c4cncc(NS(=O)(=O)c5ccccc5F)c4)s3)ccc2C1=O [Compound 22, 2-Fluoro-N-(5-(5-(2-methyl-1-oxoisoindolin-5-yl)thiophen-2-yl)pyridin-3-yl)benzenesulfonamide] | 289 to 292
CN1Cc2cc(-c3ccc(-c4cncc(NS(=O)(=O)c5ccccc5Cl)c4)s3)ccc2C1=O [Compound 27, 2-Chloro-N-(5-(5-(2-methyl-1-oxoisoindolin-5-yl)thiophen-2-yl)pyridin-3-yl)benzenesulfonamide] | 299 to 303
CN1Cc2cc(-c3ccc(-c4cncc(NS(=O)(=O)c5ccc(Br)cc5Br)c4)s3)ccc2C1=O [Compound 35, 2,4-Dibromo-N-(5-(5-(2-methyl-1-oxoisoindolin-5-yl)thiophen-2-yl)pyridin-3-yl)benzenesulfonamides] | 276 to 279
CN1Cc2cc(-c3ccc(-c4cncc(NS(=O)(=O)c5ccccc5)c4)s3)ccc2C1=O [Compound 21, N-(5-(5-(2-Methyl-1-oxoisoindolin-5-yl)thiophen-2-yl)pyridin-3-yl)benzenesulphonamide] | 300 to 303
CN1Cc2cc(-c3ccc(-c4cncc(S(=O)(=O)Nc5ccc(F)cc5F)c4)s3)ccc2C1=O [Compound 7, N-(2,4-Difluorophenyl)-5-(5-(2-methyl-1-oxoisoindolin-5-yl)thiophen-2-yl)pyridine-3-sulphonamide] | 221 to 224
CN1Cc2cc(-c3ccc(-c4cncc(NS(=O)(=O)c5cccc(Cl)c5)c4)s3)ccc2C1=O [Compound 28, 3-Chloro-N-(5-(5-(2-methyl-1-oxoisoindolin-5-yl)thiophen-2-yl)pyridin-3-yl)benzenesulfonamide] | 291 to 295
COc1ccccc1S(=O)(=O)Nc1cncc(-c2ccc(-c3ccc4c(c3)CN(C)C4=O)s2)c1 [Compound 37, 2-Methoxy-N-(5-(5-(2-methyl-1-oxoisoindolin-5-yl)thiophen-2-yl)pyridin-3-yl)benzenesulfonamide] | 273 to 276
COc1ncc(-c2ccc(-c3ccc4c(c3)CN(C)C4=O)s2)cc1NS(=O)(=O)c1ccc(F)cc1F [Compound 12, 2,4-Difluoro-N-(2-methoxy-5-(5-(2-methyl-1-oxoisoindolin-5-yl)-thiophen-2-yl)pyridin-3-yl)benzenesulphonamide] | 224 to 227
CN1Cc2cc(-c3ccc(-c4ccc(OC(F)(F)F)c(NS(=O)(=O)c5ccccn5)c4)s3)ccc2C1=O [Compound 18, N-(5-(5-(2-Methyl-1-oxoisoindolin-5-yl)thiophen-2-yl)-2-(trifluoromethoxy)phenyl)pyridine-2-sulfonamide] | 200 to 201
CN1Cc2cc(-c3ccc(-c4cccc(S(=O)(=O)Nc5ccccn5)c4)s3)ccc2C1=O (as salt: sodium) [Compound 14, sodium ((3-(5-(2-methyl-1-oxoisoindolin-5-yl)thiophen-2-yl)phenyl)sulfonyl)(pyridin-2-yl)amide] | 302 to 306
CN1Cc2cc(-c3ccc(-c4cncc(NS(=O)(=O)c5ccc(Cl)c(Cl)c5)c4)s3)ccc2C1=O [Compound 30, 3,4-Dichloro-N-(5-(5-(2-methyl-1-oxoisoindolin-5-yl)thiophen-2-yl)pyridin-3-yl)benzenesulfonamide] | 256 to 259

Next, values leading:

melting point [°C] | Structure (SMILES)
282 to 284 | CN1Cc2cc(-c3ccc(-c4cncc(NS(=O)(=O)c5ccc(C(F)(F)F)cc5)c4)s3)ccc2C1=O [Compound 46, N-(5-(5-(2-Methyl-1-oxoisoindolin-5-yl)thiophen-2-yl)pyridin-3-yl)-4-(trifluoromethyl)benzenesulfonamide]
> 300 | CN1Cc2cc(-c3ccc(-c4cncc(NS(=O)(=O)c5ccc(S(C)(=O)=O)cc5)c4)s3)ccc2C1=O (as salt: sodium) [Compound 57, Sodium (5-(5-(2-methyl-1-oxoisoindolin-5-yl)thiophen-2-yl)pyridin-3-yl)((4-(methylsulfonyl)phenyl)sulfonyl)amide]
278 to 280 | COc1cccc(S(=O)(=O)Nc2cncc(-c3ccc(-c4ccc5c(c4)CN(C)C5=O)s3)c2)c1 [Compound 38, 3-Methoxy-N-(5-(5-(2-methyl-1-oxoisoindolin-5-yl)thiophen-2-yl)pyridin-3-yl)benzenesulfonamide]
250 to 254 | COC(=O)c1cccc(S(=O)(=O)Nc2cncc(-c3ccc(-c4ccc5c(c4)CN(C)C5=O)s3)c2)c1 [Compound 52, Methyl 3-(N-(5-(5-(2-methyl-1-oxoisoindolin-5-yl)thiophen-2-yl)pyridin-3-yl)sulfamoyl)benzoate]
277 to 279 | Cc1ccc(S(=O)(=O)Nc2cncc(-c3ccc(-c4ccc5c(c4)CN(C)C5=O)s3)c2)cc1Cl [Compound 63, 3-Chloro-4-methyl-N-(5-(5-(2-methyl-1-oxoisoindolin-5-yl)thiophen-2-yl)pyridin-3-yl)benzenesulfonamide]
292 to 295 | CN1Cc2cc(-c3ccc(-c4cncc(NS(=O)(=O)c5ccc(C(F)(F)F)cc5Cl)c4)s3)ccc2C1=O [Compound 64, 2-Chloro-N-(5-(5-(2-methyl-1-oxoisoindolin-5-yl)thiophen-2-yl)pyridin-3-yl)-4-(trifluoromethyl)benzenesulfonamide]
272 to 275 | CCOC(=O)c1ccc(S(=O)(=O)Nc2cncc(-c3ccc(-c4ccc5c(c4)CN(C)C5=O)s3)c2)cc1 [Compound 54, Ethyl 4-(N-(5-(5-(2-methyl-1-oxoisoindolin-5-yl)thiophen-2-yl)pyridin-3-yl)sulfamoyl)benzoate]
251 to 254 | CN1Cc2cc(-c3ccc(-c4cncc(NS(=O)(=O)c5ccccc5OC(F)(F)F)c4)s3)ccc2C1=O [Compound 41, N-(5-(5-(2-Methyl-1-oxoisoindolin-5-yl)thiophen-2-yl)pyridin-3-yl)-2-(trifluoromethoxy)benzenesulfonamide]
272 to 275 | CN1Cc2cc(-c3ccc(-c4cncc(NS(=O)(=O)c5ccccn5)c4)s3)ccc2C1=O [Compound 66, N-(5-(5-(2-Methyl-1-oxoisoindolin-5-yl)thiophen-2-yl)pyridin-3-yl)pyridine-2-sulfonamide]
280 to 283 | Cc1cc(F)ccc1S(=O)(=O)Nc1cncc(-c2ccc(-c3ccc4c(c3)CN(C)C4=O)s2)c1 [Compound 61, 4-Fluoro-2-methyl-N-(5-(5-(2-methyl-1-oxoisoindolin-5-yl)thiophen-2-yl)pyridin-3-yl) benzenesulphonamide]
293 to 296 | CN1Cc2cc(-c3ccc(-c4cncc(NS(=O)(=O)c5ccc(OC(F)(F)F)cc5)c4)s3)ccc2C1=O [Compound 43, N-(5-(5-(2-Methyl-1-oxoisoindolin-5-yl)thiophen-2-yl)pyridin-3-yl)-4-(trifluoromethoxy)benzenesulfonamide]
265 to 268 | Cc1cc(C)n(-c2ccc(S(=O)(=O)Nc3cncc(-c4ccc(-c5ccc6c(c5)CN(C)C6=O)s4)c3)cc2)n1 [Compound 72, 4-(3,5-Dimethyl-1H-pyrazol-1-yl)-N-(5-(5-(2-methyl-1-oxoisoindolin-5-yl)thiophen-2-yl)pyridin-3-yl)benzenesulfonamide]
245 to 249 | CN1Cc2cc(-c3ccc(-c4cncc(NS(=O)(=O)c5ccc(-c6ccno6)s5)c4)s3)ccc2C1=O [Compound 71, 5-(Isoxazol-5-yl)-N-(5-(5-(2-methyl-1-oxoisoindolin-5-yl)thiophen-2-yl)pyridin-3-yl)thiophene-2-sulfonamide]
278 to 281 | CN1Cc2cc(-c3ccc(-c4cncc(NS(=O)(=O)c5ccc(-c6cnco6)cc5)c4)s3)ccc2C1=O [Compound 70, N-(5-(5-(2-Methyl-1-oxoisoindolin-5-yl)thiophen-2-yl)pyridin-3-yl)-4-(oxazol-5-yl)benzenesulfonamides]
> 300 | CN1Cc2cc(-c3ccc(-c4cncc(NS(=O)(=O)c5ccsc5)c4)s3)ccc2C1=O [Compound 69, N-(5-(5-(2-Methyl-1-oxoisoindolin-5-yl)thiophen-2-yl)pyridin-3-yl)thiophene-3-sulfonamide]
300 to 304 | CN1Cc2cc(-c3ccc(-c4cncc(NS(=O)(=O)c5cccs5)c4)s3)ccc2C1=O [Compound 68, N-(5-(5-(2-Methyl-1-oxoisoindolin-5-yl)thiophen-2-yl)pyridin-3-yl)thiophene-2-sulfonamide]
277 to 280 | Cc1ncsc1S(=O)(=O)Nc1cncc(-c2ccc(-c3ccc4c(c3)CN(C)C4=O)s2)c1 [Compound 74, 4-Methyl-N-(5-(5-(2-methyl-1-oxoisoindolin-5-yl)thiophen-2-yl)pyridin-3-yl)thiazole-5-sulphonamide]
